Results reported in ChEMBL document CHEMBL5584350, “Structural and Biochemical Insights into the Mechanism of Action of the Clinical USP1 Inhibitor, KSQ-4279” (J Med Chem, 2024).
One block for each compound: values may come before it. Activity calls are given as the source filed them. No cut-off for these calls is given here.

Legend:
[1] = target: Ubiquitin carboxyl-terminal hydrolase 12 (Homo sapiens) (UniProt O75317); experiment: Inhibition of USP12 (unknown origin) at 10 uM relative to control
Sequence of Ubiquitin carboxyl-terminal hydrolase 12 (Homo sapiens) (O75317 whole entry): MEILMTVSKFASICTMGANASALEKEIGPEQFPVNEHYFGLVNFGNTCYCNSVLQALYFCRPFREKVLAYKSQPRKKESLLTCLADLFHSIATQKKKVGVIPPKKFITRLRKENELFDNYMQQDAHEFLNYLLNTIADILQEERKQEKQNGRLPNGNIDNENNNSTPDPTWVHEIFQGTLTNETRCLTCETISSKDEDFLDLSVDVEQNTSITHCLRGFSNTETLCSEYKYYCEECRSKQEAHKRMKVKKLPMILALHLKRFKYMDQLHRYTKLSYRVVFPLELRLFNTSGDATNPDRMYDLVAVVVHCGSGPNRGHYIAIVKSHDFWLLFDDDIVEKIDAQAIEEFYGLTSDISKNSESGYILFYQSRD

[2] = target: Ubiquitin carboxyl-terminal hydrolase 46 (Homo sapiens) (UniProt P62068); experiment: Inhibition of USP46 (unknown origin) at 10 uM relative to control
Sequence of Ubiquitin carboxyl-terminal hydrolase 46 (Homo sapiens) (P62068 whole entry, the tested form may be a part): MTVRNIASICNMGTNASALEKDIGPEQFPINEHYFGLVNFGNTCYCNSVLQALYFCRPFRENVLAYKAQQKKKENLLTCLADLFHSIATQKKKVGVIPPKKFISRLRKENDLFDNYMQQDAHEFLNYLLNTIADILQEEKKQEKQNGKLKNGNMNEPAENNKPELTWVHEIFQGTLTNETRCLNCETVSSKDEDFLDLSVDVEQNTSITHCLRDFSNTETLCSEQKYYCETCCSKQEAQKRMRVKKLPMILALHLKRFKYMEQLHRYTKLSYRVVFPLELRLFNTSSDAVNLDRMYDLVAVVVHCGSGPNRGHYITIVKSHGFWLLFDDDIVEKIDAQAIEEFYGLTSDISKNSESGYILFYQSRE

[3] = tested on: Ubiquitin carboxyl-terminal hydrolase 1 (Homo sapiens), O94782 [UNDEFINED MUTATION]; experiment: (§1) Binding affinity to human His6 tagged/TEV fused USP1 229 to 408/608 to 737 residues disordered inserts deletion mutant expressed in Sf21 insect cells assessed as displacement of N85 by measuring alpha-chymotrypsin mediated protein truncation at F80 or R74 at 25 uM measured at 10 to 20 mins by instant-blue coomassie staining based SDS-PAGE analysis; details: time 10-20 min
[4] = tested on: Ubiquitin carboxyl-terminal hydrolase 1 (Homo sapiens), O94782 [UNDEFINED MUTATION]; experiment: as §1, with “trypsin” for “alpha-chymotrypsin”; details: time 10-20 min
Homo sapiens = organism: Homo sapiens; experiment: Thermal stabilization of human His6-smt3 fused USP7 catalytic domain (208 to 560 residues) expressed in Escherichia coli assessed as increase in melting temperature at 50 uM by SYPRO orange dye based thermal shift assay
[5] = target: Ubiquitin carboxyl-terminal hydrolase 12 (Homo sapiens) (UniProt O75317); experiment: Inhibition of human USP12 at 100 uM by ubiquitin-rhodamine assay relative to control
[6] = target: Ubiquitin carboxyl-terminal hydrolase 46 (Homo sapiens) (UniProt P62068); experiment: Inhibition of human USP46 at 100 uM by ubiquitin-rhodamine assay relative to control
[7] = target: Ubiquitin carboxyl-terminal hydrolase 11 (Homo sapiens) (UniProt P51784); experiment: Inhibition of USP11 (unknown origin)
Sequence of Ubiquitin carboxyl-terminal hydrolase 11 (Homo sapiens) (P51784 whole entry): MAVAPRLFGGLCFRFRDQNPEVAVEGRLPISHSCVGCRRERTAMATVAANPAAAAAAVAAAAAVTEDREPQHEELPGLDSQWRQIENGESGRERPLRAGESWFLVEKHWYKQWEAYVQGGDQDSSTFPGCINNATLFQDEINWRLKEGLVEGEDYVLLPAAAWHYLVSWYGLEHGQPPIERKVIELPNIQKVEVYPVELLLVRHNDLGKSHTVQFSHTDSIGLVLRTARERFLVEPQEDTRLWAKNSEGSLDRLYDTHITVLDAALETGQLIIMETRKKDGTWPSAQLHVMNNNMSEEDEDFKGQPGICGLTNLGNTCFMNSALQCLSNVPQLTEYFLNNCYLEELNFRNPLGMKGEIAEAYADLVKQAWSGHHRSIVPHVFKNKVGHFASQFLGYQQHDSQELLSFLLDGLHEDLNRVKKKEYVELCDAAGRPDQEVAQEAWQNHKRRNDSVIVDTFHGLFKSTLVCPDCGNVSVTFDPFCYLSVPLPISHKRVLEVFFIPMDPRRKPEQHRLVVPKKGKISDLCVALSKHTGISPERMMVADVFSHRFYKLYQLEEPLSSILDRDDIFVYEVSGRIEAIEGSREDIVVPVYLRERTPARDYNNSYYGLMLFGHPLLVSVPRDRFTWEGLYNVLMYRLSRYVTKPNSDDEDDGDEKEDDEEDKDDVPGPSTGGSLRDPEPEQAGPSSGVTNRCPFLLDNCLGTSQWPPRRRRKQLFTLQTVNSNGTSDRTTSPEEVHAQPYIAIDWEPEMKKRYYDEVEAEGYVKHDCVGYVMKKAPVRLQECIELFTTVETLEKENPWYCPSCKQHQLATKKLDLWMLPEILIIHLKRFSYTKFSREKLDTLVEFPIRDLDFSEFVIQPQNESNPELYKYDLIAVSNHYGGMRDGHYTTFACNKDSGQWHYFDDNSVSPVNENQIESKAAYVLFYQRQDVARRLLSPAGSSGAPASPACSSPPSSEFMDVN

[8] = Selectivity index, ratio of inhibition of USP12 (unknown origin) to IC50 for human USP1
[9] = target: T1, Ubiquitin carboxyl-terminal hydrolase 1 (Homo sapiens) (UniProt O94782); experiment: Inhibition of human USP1 using FANC1-FANCD2Ub-ds DNA as substrate assessed as reduction in FANCD2 deubiquitination at 25 uM measured after 0 to 20 mins by instant-blue coomassie staining based SDS-PAGE analysis; details: time 0-20 min
T1 sequence (whole entry): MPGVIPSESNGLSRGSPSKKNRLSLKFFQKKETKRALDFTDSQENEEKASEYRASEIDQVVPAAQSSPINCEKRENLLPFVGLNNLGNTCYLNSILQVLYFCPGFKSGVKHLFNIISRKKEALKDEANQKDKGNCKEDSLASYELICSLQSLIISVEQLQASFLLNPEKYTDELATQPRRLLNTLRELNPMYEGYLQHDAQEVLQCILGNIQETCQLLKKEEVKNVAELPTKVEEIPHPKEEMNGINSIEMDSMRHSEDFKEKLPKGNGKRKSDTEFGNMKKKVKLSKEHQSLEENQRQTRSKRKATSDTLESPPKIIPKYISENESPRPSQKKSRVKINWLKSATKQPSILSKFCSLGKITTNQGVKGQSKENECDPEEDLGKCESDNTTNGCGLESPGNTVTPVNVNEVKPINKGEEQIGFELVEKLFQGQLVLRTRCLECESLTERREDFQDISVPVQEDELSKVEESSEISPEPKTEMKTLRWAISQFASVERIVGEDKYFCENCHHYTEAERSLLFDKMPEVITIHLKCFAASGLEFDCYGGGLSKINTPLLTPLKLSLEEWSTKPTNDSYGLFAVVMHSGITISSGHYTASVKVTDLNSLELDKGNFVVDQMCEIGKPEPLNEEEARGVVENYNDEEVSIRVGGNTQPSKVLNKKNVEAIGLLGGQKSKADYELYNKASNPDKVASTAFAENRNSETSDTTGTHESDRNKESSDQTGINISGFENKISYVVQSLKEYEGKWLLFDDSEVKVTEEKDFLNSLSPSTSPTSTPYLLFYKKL

[10] = target: T1, Ubiquitin carboxyl-terminal hydrolase 1 (Homo sapiens); details: dose 50.0 µM
Description: Thermal stabilization of human USP1 assessed as increase in melting temperature at 50 uM by SYPRO Orange dye based thermal shift assay

inhibition [1]: 50%
inhibition [2]: 50%
Compound: CC(C)c1ccccc1-c1ncc2[nH]c(=O)n(Cc3ccc(-c4nc(C(F)(F)F)cn4C)cc3)c2n1

Activity [3]: inactive
Activity [4]: inactive
Compound: O=C1c2ccccc2C(=O)c2oc(-c3ccccc3)nc21

Activity (Homo sapiens): inactive
inhibition [5]: < 50%
inhibition [6]: < 50%
inhibition [7]: inactive
Compound: COc1ncnc(C2CC2)c1-c1ncc2cnn(Cc3ccc(-c4nc(C(F)(F)F)cn4C(C)C)cc3)c2n1

Activity (Homo sapiens): inactive
inhibition [7]: inactive
Selectivity Index [8]: 100
inhibition [9]: inactive
ΔTm [10]: 11 °C
Compound: Cc1cnc(-c2ccccc2C(C)C)nc1NCc1ccc(-n2ccnn2)cc1
